Assay results reported in ChEMBL document CHEMBL4033752, “Discovery of Potent and Selective Tricyclic Inhibitors of Bruton's Tyrosine Kinase with Improved Druglike Properties” (ACS Med Chem Lett, 2017).
Active and inactive are the calls of the source. The rule behind the calls is not given here.

Assays:
[1] = Total clearance in rat at 1 mg/kg, iv; format: ADME, organism-based; conditions: in vivo
[2] = Oral bioavailability in rat at 5 mg/kg; format: ADME, organism-based; conditions: in vivo
[3] = target: T1, Tyrosine-protein kinase BTK (Homo sapiens, UniProt Q06187)
T1 sequence (Q06187 whole entry): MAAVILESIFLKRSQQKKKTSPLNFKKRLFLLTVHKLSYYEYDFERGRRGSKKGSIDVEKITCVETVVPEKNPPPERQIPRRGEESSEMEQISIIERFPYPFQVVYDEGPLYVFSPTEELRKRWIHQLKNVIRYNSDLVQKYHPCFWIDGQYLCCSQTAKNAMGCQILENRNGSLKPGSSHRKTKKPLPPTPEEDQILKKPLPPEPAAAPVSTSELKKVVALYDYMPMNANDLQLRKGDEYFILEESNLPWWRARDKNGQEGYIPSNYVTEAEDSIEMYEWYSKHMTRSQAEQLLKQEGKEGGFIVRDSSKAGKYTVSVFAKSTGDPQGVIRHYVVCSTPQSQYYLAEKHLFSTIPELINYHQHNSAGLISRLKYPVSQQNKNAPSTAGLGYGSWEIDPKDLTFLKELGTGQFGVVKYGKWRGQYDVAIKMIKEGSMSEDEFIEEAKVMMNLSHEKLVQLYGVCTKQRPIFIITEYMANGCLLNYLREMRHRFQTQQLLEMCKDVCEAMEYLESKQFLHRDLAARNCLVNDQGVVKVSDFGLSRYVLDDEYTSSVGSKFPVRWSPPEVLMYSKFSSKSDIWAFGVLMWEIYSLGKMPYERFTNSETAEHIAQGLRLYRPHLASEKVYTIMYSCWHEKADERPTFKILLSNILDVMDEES
Description: Inhibition of recombinant human full length His-tagged BTK expressed in baculovirus expression system by Z-LYTE assay

[4] = target: Tyrosine-protein kinase BTK (Mus musculus, UniProt P35991)
Sequence of Tyrosine-protein kinase BTK (Mus musculus, UniProt P35991) (P35991 whole entry): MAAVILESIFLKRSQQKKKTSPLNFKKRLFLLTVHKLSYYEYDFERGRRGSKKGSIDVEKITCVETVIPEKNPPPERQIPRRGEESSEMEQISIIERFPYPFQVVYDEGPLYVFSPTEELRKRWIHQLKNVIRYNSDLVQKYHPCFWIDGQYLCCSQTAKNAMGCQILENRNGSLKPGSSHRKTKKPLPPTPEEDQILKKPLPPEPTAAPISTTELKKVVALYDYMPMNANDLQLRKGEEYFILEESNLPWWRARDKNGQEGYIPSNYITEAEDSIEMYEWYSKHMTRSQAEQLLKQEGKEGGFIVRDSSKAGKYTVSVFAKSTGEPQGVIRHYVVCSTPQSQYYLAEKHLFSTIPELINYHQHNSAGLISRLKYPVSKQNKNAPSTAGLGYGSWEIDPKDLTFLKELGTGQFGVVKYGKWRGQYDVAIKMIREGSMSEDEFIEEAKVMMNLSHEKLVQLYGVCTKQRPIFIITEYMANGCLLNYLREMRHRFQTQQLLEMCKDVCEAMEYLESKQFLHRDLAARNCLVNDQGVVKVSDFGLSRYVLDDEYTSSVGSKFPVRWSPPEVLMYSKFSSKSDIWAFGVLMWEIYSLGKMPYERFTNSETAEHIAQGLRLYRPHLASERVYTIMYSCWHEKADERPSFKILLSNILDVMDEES

Rattus norvegicus [5] = experiment: Antiinflammatory activity in Lewis rat CIA model assessed as reduction in ankle thickness at 0.05 mg/kg measured between day 10 and day 17; format: functional, organism-based
[6] = Apparent permeability from apical side to basolateral side in MDCK cells at 10 uM after 3 hrs by LC-MS/MS analysis; format: ADME, cell-based, Canis lupus familiaris; conditions: dog
[7] = target: T1, Tyrosine-protein kinase BTK; remark: listed apart in the source
Description: Inhibition of BTK in goat anti-human IgM F(ab')2-stimulated human whole blood assessed as suppression of BCR-induced CD69 expression on B cells preincubated for 1 hr followed by blood stimulation measured after 18 hrs by FACS analysis

[8] = buffer, pH 7.4
Description: Kinetic solubility of the compound at pH 7.4

[9] = Total clearance in mouse; format: ADME, organism-based; conditions: in vivo
[10] = Total clearance in dog; format: ADME, Canis lupus familiaris; conditions: in vivo
[11] = Total clearance in cynomolgus monkey; format: ADME, Macaca fascicularis; conditions: in vivo
Mus musculus [12] = experiment: Oral bioavailability in mouse at 5 mg/kg; format: ADME, organism-based; conditions: in vivo
Mus musculus [13] = experiment: Oral bioavailability in mouse at 100 mg/kg; format: ADME, organism-based; conditions: in vivo
Rattus norvegicus [14] = experiment: Oral bioavailability in rat at 100 mg/kg; format: ADME, organism-based; conditions: in vivo
Canis familiaris = experiment: Oral bioavailability in dog at 5 mg/kg; format: ADME, organism-based, Canis lupus familiaris; conditions: in vivo
Rattus norvegicus [15] = experiment: Antiinflammatory activity in Lewis rat CIA model assessed as reduction in ankle thickness administered via oral gavage as bid measured between day 10 and day 17; format: functional

Cc1c(NC(=O)c2cc3c(s2)CCCC3)cccc1-c1cc(Nc2ccncn2)c(=O)n(C)c1
clearance [1]: 2 mL/min/kg | bioavailability [2]: 45% | IC50 [3]: 42 nM | IC50 [4]: 740 nM

Cn1cc(-c2cccc(N3CCc4c(sc5c4CCCC5)C3=O)c2CO)cc(Nc2ccncn2)c1=O
bioavailability [2]: 90%

C[C@@H]1C[C@H]2[C@@H]3CCC4=CC(=O)C=C[C@]4(C)[C@@]3(F)[C@@H](O)C[C@]2(C)[C@@]1(O)C(=O)CO
Activity (Rattus norvegicus [5]): Active

Cn1cc(-c2cccc(N3CCn4c(cc5c4CCCC5)C3=O)c2CO)cc(Nc2ccc(N3CCN(C4COC4)CC3)cn2)c1=O
clearance [1]: 14 mL/min/kg | bioavailability [2]: 46% | Papp A→B at 3 h, 10 µM [6]: 1 to 10 ×10⁻⁶ cm/s | IC50 [3]: 8 nM | IC50 [4]: 137 nM | IC50 [7]: 69 nM | Kinetic_solubility [8]: 99 µM

Cn1cc(-c2cc(F)cc(N3CCn4c(cc5c4CCCC5)C3=O)c2CO)cc(Nc2ccc(N3CCN(C4COC4)CC3)cn2)c1=O
clearance [1]: 20 mL/min/kg | bioavailability [2]: 27% | Papp A→B at 3 h, 10 µM [6]: > 10 ×10⁻⁶ cm/s | IC50 [4]: 10 nM | Kinetic_solubility [8]: 73 µM

CN1CCN(c2ccc(Nc3cc(-c4cc(F)cc(N5CCn6c(cc7c6CCCC7)C5=O)c4CO)cn(C)c3=O)nc2)CC1
clearance [1]: 37 mL/min/kg | bioavailability [2]: 52% | Papp A→B at 3 h, 10 µM [6]: 1 to 10 ×10⁻⁶ cm/s | IC50 [4]: 22 nM | Kinetic_solubility [8]: 71 µM

Cn1cc(-c2cccc(N3CCc4cc(C(C)(C)C)ccc4C3=O)c2CO)cc(Nc2ccncn2)c1=O
IC50 [4]: 51 nM | Kinetic_solubility [8]: 2 µM

Cn1cc(-c2cccc(N3CCc4c(sc5c4CC(C)(C)C5)C3=O)c2CO)cc(Nc2ccncn2)c1=O
clearance [9]: 22 mL/min/kg | clearance [10]: 7 mL/min/kg | clearance [11]: 17 mL/min/kg | F (Mus musculus [12]): 77% | F (Mus musculus [13]): 45% | F (Rattus norvegicus [14]): 23% | F (Canis familiaris): 27% | Activity (Rattus norvegicus [15]): Dose-dependent effect

CN1CCN(c2ccc(Nc3cc(-c4cccc(N5CCn6c(cc7c6CCCC7)C5=O)c4CO)cn(C)c3=O)nc2)CC1
clearance [1]: 40 mL/min/kg | bioavailability [2]: 20% | Papp A→B at 3 h, 10 µM [6]: 1 to 10 ×10⁻⁶ cm/s | IC50 [3]: 4 nM | IC50 [4]: 107 nM | IC50 [7]: 45 nM | Kinetic_solubility [8]: 115 µM

CN1CCN(c2ccc(Nc3cc(-c4cccc(N5CCc6c(sc7c6CC(C)(C)C7)C5=O)c4CO)cn(C)c3=O)nc2)CC1
clearance [1]: 29 mL/min/kg | bioavailability [2]: 37%
